Experimental data reported in paper doi:10.1101/471615v1 (biorxiv, 2018).

What was measured:
Experiment in all cases: biochemical
[1] = target: LCK (Homo sapiens, UniProt P06239)
[2] = target: BMPR1B (Homo sapiens, UniProt O00238)
[3] = target: T1, EphA8 (Homo sapiens, UniProt P29322)
T1 sequence (P29322 1-1005): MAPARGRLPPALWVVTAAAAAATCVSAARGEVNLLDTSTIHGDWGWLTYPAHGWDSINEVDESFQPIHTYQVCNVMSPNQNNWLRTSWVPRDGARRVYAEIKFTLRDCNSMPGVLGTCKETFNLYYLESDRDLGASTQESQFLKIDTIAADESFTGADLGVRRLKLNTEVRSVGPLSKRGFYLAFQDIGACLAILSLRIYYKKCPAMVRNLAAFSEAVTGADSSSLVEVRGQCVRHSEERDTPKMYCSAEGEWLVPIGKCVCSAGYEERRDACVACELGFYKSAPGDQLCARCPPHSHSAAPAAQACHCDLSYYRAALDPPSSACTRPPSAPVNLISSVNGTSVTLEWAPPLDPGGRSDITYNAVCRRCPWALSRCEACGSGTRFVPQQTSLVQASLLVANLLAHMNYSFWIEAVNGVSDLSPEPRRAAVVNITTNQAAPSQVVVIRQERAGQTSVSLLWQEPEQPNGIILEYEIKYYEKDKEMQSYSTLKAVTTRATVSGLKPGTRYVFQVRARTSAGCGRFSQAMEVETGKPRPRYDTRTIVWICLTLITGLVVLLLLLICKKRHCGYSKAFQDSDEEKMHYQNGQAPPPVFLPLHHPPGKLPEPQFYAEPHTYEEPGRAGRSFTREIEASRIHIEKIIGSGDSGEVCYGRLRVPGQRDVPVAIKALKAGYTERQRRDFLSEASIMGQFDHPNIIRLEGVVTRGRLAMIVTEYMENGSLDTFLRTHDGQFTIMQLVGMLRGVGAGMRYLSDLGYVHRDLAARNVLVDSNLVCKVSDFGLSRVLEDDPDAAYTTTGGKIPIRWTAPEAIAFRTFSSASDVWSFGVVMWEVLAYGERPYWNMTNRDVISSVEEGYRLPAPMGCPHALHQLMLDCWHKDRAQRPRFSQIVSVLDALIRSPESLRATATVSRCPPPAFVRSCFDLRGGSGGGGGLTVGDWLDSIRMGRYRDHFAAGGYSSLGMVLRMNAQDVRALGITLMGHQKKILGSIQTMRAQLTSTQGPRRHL

[4] = target: AarF domain containing kinase 3, ADCK3 (Homo sapiens, UniProt Q8NI60)
Chain of AarF domain containing kinase 3, ADCK3 (Q8NI60 163-647): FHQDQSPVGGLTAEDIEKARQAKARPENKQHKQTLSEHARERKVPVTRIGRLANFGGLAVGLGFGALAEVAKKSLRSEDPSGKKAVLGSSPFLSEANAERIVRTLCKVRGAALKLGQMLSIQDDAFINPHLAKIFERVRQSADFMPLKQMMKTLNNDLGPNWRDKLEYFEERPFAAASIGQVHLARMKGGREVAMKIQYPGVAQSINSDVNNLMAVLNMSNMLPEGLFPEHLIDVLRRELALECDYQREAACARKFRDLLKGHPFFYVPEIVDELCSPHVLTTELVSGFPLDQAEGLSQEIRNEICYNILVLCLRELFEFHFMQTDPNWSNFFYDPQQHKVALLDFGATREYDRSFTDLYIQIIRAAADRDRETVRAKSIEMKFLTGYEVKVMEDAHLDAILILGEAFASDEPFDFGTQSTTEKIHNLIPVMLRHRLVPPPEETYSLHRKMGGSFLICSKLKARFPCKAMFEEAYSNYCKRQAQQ

[5] = target: T2, EphB6 (Homo sapiens, UniProt O15197)
T2 sequence (O15197 1-1021): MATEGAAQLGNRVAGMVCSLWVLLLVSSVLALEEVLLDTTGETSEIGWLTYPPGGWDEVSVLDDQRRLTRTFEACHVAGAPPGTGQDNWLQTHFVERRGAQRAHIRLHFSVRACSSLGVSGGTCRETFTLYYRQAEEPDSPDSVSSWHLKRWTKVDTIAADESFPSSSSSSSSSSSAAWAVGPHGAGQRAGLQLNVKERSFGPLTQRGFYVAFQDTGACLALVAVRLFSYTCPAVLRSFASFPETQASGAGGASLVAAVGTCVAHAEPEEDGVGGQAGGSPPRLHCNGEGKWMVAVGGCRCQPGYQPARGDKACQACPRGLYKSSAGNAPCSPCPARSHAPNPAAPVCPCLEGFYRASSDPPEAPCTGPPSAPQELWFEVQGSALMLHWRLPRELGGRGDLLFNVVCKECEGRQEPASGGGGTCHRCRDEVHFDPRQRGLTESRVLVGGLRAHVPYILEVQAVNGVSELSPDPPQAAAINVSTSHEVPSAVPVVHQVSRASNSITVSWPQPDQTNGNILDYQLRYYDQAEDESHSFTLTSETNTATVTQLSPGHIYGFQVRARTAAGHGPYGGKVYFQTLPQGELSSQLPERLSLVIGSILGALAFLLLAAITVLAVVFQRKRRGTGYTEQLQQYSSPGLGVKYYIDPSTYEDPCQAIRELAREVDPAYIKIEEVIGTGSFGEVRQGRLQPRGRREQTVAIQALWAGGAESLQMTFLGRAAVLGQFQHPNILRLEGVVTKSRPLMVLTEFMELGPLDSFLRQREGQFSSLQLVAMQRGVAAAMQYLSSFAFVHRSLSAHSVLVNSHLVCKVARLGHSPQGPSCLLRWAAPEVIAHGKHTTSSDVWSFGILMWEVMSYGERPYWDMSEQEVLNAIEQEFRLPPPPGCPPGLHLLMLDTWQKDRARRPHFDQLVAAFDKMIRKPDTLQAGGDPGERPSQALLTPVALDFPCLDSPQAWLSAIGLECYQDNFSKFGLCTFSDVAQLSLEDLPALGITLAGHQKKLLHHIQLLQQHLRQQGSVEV

Measured: Kd

Chain of BMPR1B (O00238 whole entry): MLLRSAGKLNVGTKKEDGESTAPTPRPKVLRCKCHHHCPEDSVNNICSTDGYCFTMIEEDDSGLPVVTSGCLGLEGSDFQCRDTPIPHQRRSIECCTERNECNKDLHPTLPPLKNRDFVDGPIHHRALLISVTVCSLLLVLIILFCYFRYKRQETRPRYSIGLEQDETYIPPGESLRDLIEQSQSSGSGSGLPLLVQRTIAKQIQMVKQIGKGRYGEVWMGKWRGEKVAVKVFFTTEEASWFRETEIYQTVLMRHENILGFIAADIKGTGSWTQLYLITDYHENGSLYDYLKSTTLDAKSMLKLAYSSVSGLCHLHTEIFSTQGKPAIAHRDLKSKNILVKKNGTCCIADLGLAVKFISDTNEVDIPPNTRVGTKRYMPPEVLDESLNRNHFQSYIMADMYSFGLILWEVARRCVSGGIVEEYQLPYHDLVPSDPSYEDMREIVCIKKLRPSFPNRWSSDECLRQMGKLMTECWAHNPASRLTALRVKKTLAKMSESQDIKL
Chain of LCK (P06239 whole entry): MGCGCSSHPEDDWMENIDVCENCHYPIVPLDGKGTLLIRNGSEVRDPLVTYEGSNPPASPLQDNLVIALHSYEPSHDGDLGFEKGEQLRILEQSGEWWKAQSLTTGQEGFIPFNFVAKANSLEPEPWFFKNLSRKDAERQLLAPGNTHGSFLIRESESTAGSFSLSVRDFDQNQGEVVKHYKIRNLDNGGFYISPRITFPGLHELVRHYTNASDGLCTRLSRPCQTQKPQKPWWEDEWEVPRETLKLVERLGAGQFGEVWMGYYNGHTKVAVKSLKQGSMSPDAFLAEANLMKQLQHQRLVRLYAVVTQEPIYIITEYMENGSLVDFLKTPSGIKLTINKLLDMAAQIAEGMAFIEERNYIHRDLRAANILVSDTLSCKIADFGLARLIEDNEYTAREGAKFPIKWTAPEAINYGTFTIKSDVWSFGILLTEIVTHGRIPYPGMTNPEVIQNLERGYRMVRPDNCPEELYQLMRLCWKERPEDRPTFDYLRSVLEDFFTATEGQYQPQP

COc1cc(N(C)c2ccnc3ccc(C(F)(F)F)cc23)cc(OC)c1OC [compound 21, negative control (21)]
> 10 µM: all assays above
